Assay results as given in the supplement of paper PMC10307832.

Legend:
Assay in all cases: relative viability (nuclei count vs DMSO), 5 days (fraction); higher = more cells survive
[1] = tested on: NCI-H650
Procedure, shortened: (§1)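 Medians of duplicate plates are given as relative viability. That measure is the nuclei count in treated wells divided by the count in vehicle wells. Counts were taken on 4× images of lung cancer cell lines in 1536-well plates, 5 days after pin-tool dosing the day after seeding with one drug alone or a fixed anchor-drug dose plus five library-drug doses (not always all listed) in √10 steps.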

[2] = tested on: NCI-H23
Procedure, shortened: as §1

[3] = tested on: NCI-H1650
Procedure, shortened: as §1

[4] = tested on: LCLC-103H
Procedure, shortened: as §1

[5] = tested on: NCI-H727
Procedure, shortened: as §1

[6] = tested on: PC-3 [JPC-3]
Procedure, shortened: as §1

[7] = tested on: LU99A
Procedure, shortened: as §1

[8] = tested on: NCI-H1563
Procedure, shortened: as §1

[9] = tested on: HCC-44
Procedure, shortened: as §1

[10] = tested on: NCI-H460
Procedure, shortened: as §1

[11] = tested on: 201T
Procedure, shortened: as §1

[12] = tested on: H3255
Procedure, shortened: as §1

[13] = tested on: NCI-H2347
Procedure, shortened: as §1

[14] = tested on: PC-14
Procedure, shortened: as §1

[15] = tested on: A-427
Procedure, shortened: as §1

[16] = tested on: SW 1573
Procedure, shortened: as §1

[17] = tested on: NCI-H838
Procedure, shortened: as §1

[18] = tested on: COR-L23
Procedure, shortened: as §1

[19] = tested on: LCLC-97TM1
Procedure, shortened: as §1

Oc1nc(-c2ccc(C(F)(F)F)cc2)nc2c1CSCC2 [XAV939] + CC(C)C[C@H](NC(=O)[C@H](Cc1ccccc1)NC(=O)c1cnccn1)B(O)O [Bortezomib] (partner 0.002 µM) gave a relative viability ([1]; first compound 0.08 µM) of 0.838, a relative viability ([1]; first compound 0.253 µM) of 0.882 and a relative viability ([1]; first compound 0.8 µM) of 0.854. The relative viability ([1]; first compound 2.53 µM) was 0.703, the relative viability ([2]; first compound 0.08 µM) was 0.992 and the relative viability ([2]; first compound 0.253 µM) was 1.12. For the same compound, the relative viability ([2]; first compound 0.8 µM) was 0.989, the relative viability ([2]; first compound 2.53 µM) was 0.886 and the relative viability ([3]; first compound 0.08 µM) was 0.178. The relative viability ([3]; first compound 0.253 µM) was 0.211, the relative viability ([3]; first compound 0.8 µM) was 0.222 and the relative viability ([3]; first compound 2.53 µM) was 0.215. For the same compound, the relative viability ([4]; first compound 0.08 µM) was 0.936, the relative viability ([4]; first compound 0.253 µM) was 1.11 and the relative viability ([4]; first compound 0.8 µM) was 0.861. For the same compound, the relative viability ([4]; first compound 2.53 µM) was 1.01, the relative viability ([5]; first compound 0.08 µM) was 1.05 and the relative viability ([5]; first compound 0.253 µM) was 0.589. The relative viability ([5]; first compound 0.8 µM) was 0.803, the relative viability ([5]; first compound 2.53 µM) was 0.957 and the relative viability ([6]; first compound 0.08 µM) was 0.839. The relative viability ([6]; first compound 0.253 µM) was 0.722, the relative viability ([6]; first compound 0.8 µM) was 0.831 and the relative viability ([6]; first compound 2.53 µM) was 0.755. The relative viability ([7]; first compound 0.08 µM) was 1.26, the relative viability ([7]; first compound 0.253 µM) was 0.714 and the relative viability ([7]; first compound 0.8 µM) was 1.01. For the same compound, the relative viability ([7]; first compound 2.53 µM) was 1.19, the relative viability ([8]; first compound 0.08 µM) was 0.835 and the relative viability ([8]; first compound 0.253 µM) was 0.81. The relative viability ([8]; first compound 0.8 µM) was 0.798, the relative viability ([8]; first compound 2.53 µM) was 0.764 and the relative viability ([9]; first compound 0.08 µM) was 0.909. For the same compound, the relative viability ([9]; first compound 0.253 µM) was 0.809, the relative viability ([9]; first compound 0.8 µM) was 0.854 and the relative viability ([9]; first compound 2.53 µM) was 0.824. For the same compound, the relative viability ([10]; first compound 0.08 µM) was 1.45, the relative viability ([10]; first compound 0.253 µM) was 1.07 and the relative viability ([10]; first compound 0.8 µM) was 1.05. The relative viability ([10]; first compound 2.53 µM) was 1.08, the relative viability ([11]; first compound 0.08 µM) was 1.12 and the relative viability ([11]; first compound 0.253 µM) was 0.981. For the same compound, the relative viability ([11]; first compound 0.8 µM) was 1.08, the relative viability ([11]; first compound 2.53 µM) was 0.979 and the relative viability ([12]; first compound 0.08 µM) was 1.05. For the same compound, the relative viability ([12]; first compound 0.253 µM) was 0.716, the relative viability ([12]; first compound 0.8 µM) was 0.62 and the relative viability ([12]; first compound 2.53 µM) was 0.853. The relative viability ([13]; first compound 0.08 µM) was 1.27, the relative viability ([13]; first compound 0.253 µM) was 0.75 and the relative viability ([13]; first compound 0.8 µM) was 1.02. For the same compound, the relative viability ([13]; first compound 2.53 µM) was 0.837, the relative viability ([14]; first compound 0.08 µM) was 0.825 and the relative viability ([14]; first compound 0.253 µM) was 0.808. It also gave a relative viability ([14]; first compound 0.8 µM) of 0.846, a relative viability ([14]; first compound 2.53 µM) of 0.794 and a relative viability ([15]; first compound 0.08 µM) of 1.06. It also gave a relative viability ([15]; first compound 0.253 µM) of 0.977, a relative viability ([15]; first compound 0.8 µM) of 0.883 and a relative viability ([15]; first compound 2.53 µM) of 0.769. For the same compound, the relative viability ([16]; first compound 0.08 µM) was 0.994, the relative viability ([16]; first compound 0.253 µM) was 1.01 and the relative viability ([16]; first compound 0.8 µM) was 1.1. It also gave a relative viability ([16]; first compound 2.53 µM) of 0.676, a relative viability ([17]; first compound 0.08 µM) of 0.852 and a relative viability ([17]; first compound 0.253 µM) of 0.683. It also gave a relative viability ([17]; first compound 0.8 µM) of 0.893, a relative viability ([17]; first compound 2.53 µM) of 0.527 and a relative viability ([18]; first compound 0.08 µM) of 1.03. The relative viability ([18]; first compound 0.253 µM) was 0.994, the relative viability ([18]; first compound 0.8 µM) was 1.05 and the relative viability ([18]; first compound 2.53 µM) was 0.855. It also gave a relative viability ([19]; first compound 0.08 µM) of 0.589, a relative viability ([19]; first compound 0.253 µM) of 0.517 and a relative viability ([19]; first compound 0.8 µM) of 0.472. For the same compound, the relative viability ([19]; first compound 2.53 µM) was 0.505.
